Laboratory results: PMC9631745 (ACS Omega, 2022)
pKd: −log10 of the molar value.

Target: human transferrin (Tf; hTf) (Homo sapiens, UniProt P02787)
Experiment: isothermal titration calorimetry
Type: binding

Sequence of human transferrin (Tf; hTf) (P02787 20-698): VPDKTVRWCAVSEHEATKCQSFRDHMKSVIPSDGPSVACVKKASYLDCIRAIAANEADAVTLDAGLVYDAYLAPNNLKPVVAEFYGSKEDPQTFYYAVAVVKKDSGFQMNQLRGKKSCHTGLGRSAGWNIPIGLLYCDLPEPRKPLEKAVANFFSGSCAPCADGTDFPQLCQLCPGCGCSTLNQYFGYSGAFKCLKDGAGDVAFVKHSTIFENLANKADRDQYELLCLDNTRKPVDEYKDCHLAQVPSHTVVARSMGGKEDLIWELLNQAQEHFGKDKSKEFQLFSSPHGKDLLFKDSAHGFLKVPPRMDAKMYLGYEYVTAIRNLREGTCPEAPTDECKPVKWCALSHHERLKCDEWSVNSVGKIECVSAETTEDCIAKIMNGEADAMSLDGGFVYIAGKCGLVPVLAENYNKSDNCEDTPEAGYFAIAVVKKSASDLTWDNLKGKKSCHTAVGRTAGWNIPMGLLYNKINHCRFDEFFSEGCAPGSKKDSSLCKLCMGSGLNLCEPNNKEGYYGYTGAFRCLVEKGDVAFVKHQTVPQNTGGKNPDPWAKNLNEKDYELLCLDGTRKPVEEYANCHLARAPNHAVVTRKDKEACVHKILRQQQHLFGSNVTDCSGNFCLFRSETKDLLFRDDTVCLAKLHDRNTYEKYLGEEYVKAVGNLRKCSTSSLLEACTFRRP

Q: `C/C=C1\[C@H]2C=C(C)C[C@]1(N)c1ccc(=O)[nH]c1C2` [Huperzine A] was tested. Which pKd did it give?
A: The pKd was 5.84.
